The values that follow come from ChEMBL document CHEMBL4138114, “Pharmacophore guided discovery of small-molecule interleukin 15 inhibitors” (Eur J Med Chem, 2017).

The structures appear in SMILES notation. Calls of active or inactive are those of the source. The calls are words filed in the database; no cut-off is given here.

Holding throughout (format): cell-based
Series [1] has as its target T1, IL15-IL15 receptor (Homo sapiens) (UniProt P40933+Q13261). Put plainly: Inhibition of IL-15 (unknown origin)/IL-15Ralpha interaction in human PBMC cells assessed as reduction of TNF-alpha synthesis preincubated for 30 mins followed by IL-15 addition measured after 48 hrs by ELISA. Background: An ELISA detects its analyte on a solid surface through an enzyme-linked reagent.

In series [2] the target is T1, IL15-IL15 receptor (Homo sapiens). Briefly: Inhibition of IL-15 (unknown origin)/IL-15Ralpha interaction in human PBMC cells assessed as reduction of IL-17 synthesis preincubated for 30 mins followed by IL-15 addition measured after 48 hrs by ELISA.
The subject of another series is PBMC. Put plainly: Cytotoxicity against human PBMC cells up to 200 uM after 48 hrs by CellTiter 96 AQueous one solution cell proliferation assay.

T1 sequence (P40933 49-162 limits assumed): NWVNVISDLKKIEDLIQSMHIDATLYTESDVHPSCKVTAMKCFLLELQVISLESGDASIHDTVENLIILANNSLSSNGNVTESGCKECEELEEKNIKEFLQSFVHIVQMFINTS
T1 sequence (Q13261 31-267 partner limits assumed): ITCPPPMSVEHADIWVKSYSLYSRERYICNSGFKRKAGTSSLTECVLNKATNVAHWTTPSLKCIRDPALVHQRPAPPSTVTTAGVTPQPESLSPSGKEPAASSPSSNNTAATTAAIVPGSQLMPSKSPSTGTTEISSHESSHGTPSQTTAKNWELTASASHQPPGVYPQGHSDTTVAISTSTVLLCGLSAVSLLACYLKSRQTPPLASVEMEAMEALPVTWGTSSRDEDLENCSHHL

Take `NC(CCCCCCC(N)C(=O)O)C(=O)O` (configuration not stated): the “TNF-alpha synthesis inhibition (active/not active)” value in series [1] was “Active”. The inhibition entry in series [2] is “Active”. The Activity result in the series with PBMC is on record as “Non-Toxic”.

In the case of `NCCC(=O)N[C@@H](Cc1cnc[nH]1)C(=O)O` [CARNOSINE], in the series on PBMC, the Activity entry is “Non-Toxic”.

For `COC(=O)CCC(=O)NCc1ccc(C(=O)OC)cc1`, the “TNF-alpha synthesis inhibition (active/not active)” value in series [1] was “Active”. In addition, in series [2], the inhibition result was “Active”. For the same molecule, the Activity entry in the series with PBMC is reported as “Non-Toxic”.

For `O=C(O)c1ccc(CSc2nnnn2C2CCCCC2)cc1`, in series [1], the “TNF-alpha synthesis inhibition (active/not active)” value was “inactive”. Moreover, in series [2], the inhibition entry is “inactive”. The Activity entry in the series on PBMC was “Non-Toxic”.

In the case of `O=C(O)c1ccc(CNC(=O)C2C3CCC(C3)C2C(=O)O)cc1` (configuration not stated), in series [1], the “TNF-alpha synthesis inhibition (active/not active)” value was “Active”. For the same molecule, the inhibition result in series [2] was “Active”. Moreover, in the series with PBMC, the Activity result is “Non-Toxic”.

On to `COc1ccc(-n2nnnc2S(=O)(=O)Cc2ccc(C(=O)O)cc2)cc1`, for which the “TNF-alpha synthesis inhibition (active/not active)” value in series [1] is “inactive”. The inhibition entry in series [2] is “inactive”. Further, in the series with PBMC, the Activity entry is listed as “Non-Toxic”.

`NC(N)=NC(=O)CNCC(=O)N=C(N)N`: the “TNF-alpha synthesis inhibition (active/not active)” value in series [1] is “Active”. Besides, the inhibition result in series [2] is “Active”. In the series with PBMC, the Activity entry is listed as “Non-Toxic”.

As to `C/C(C/C(C)=N/N=C(N)N)=N\N=C(N)N`, the “TNF-alpha synthesis inhibition (active/not active)” value in series [1] is “Active”. In addition, the inhibition entry in series [2] was “Active”. In the series with PBMC, the Activity result is reported as “Non-Toxic”.

`NCCC(=O)N[C@@H](Cc1c[nH]cn1)C(=O)O`: in series [1], the “TNF-alpha synthesis inhibition (active/not active)” value was “inactive”. In series [2], the inhibition result is “inactive”.

Turning to `O=C(O)c1ccc(CSc2nnnn2-c2ccc(F)cc2)cc1`, the “TNF-alpha synthesis inhibition (active/not active)” value in series [1] was “Active”. In addition, the inhibition entry in series [2] was “Active”. Also, the Activity result with PBMC is on record as “Non-Toxic”.

Consider `COC(=O)c1ccc(O)c(C)c1O`, for which the “TNF-alpha synthesis inhibition (active/not active)” value in series [1] is “Active”. The inhibition result in series [2] was “Active”. In addition, in the series on PBMC, the Activity entry is on record as “Non-Toxic”.

For `O=C(O)Cc1ccc(NC(=O)C2CC=CCC2C(=O)O)cc1` (configuration not stated), in series [1], the “TNF-alpha synthesis inhibition (active/not active)” value is “inactive”. In addition, in series [2], the inhibition result was “inactive”. Besides, the Activity result in the series with PBMC is reported as “Non-Toxic”.

For the molecule `O=C(O)c1ccc(CNC(=O)C2CCCCC2C(=O)O)cc1` (configuration not stated), in series [1], the “TNF-alpha synthesis inhibition (active/not active)” value was “Active”. In addition, the inhibition entry in series [2] was “Active”. Also, in the series with PBMC, the Activity entry was “Non-Toxic”.

`CCC(=O)Nc1ccc(Cc2ccc(NC(=O)CC)c(C(=O)O)c2)cc1C(=O)O`: the “TNF-alpha synthesis inhibition (active/not active)” value in series [1] is “inactive”. In series [2], the inhibition entry was “inactive”. In addition, the Activity result in the series on PBMC is “Non-Toxic”.

Turning to `COc1ccc(S(=O)(=O)Nc2cccc(C(=O)O)c2)cc1C(=O)O`, the “TNF-alpha synthesis inhibition (active/not active)” value in series [1] was “inactive”. Also, in series [2], the inhibition result is “inactive”. For the same molecule, the Activity entry in the series with PBMC is given as “Non-Toxic”.

Regarding `O=C(O)CCC(=O)Nc1cc(NC(=O)CCC(=O)O)cc(C(=O)O)c1`, the “TNF-alpha synthesis inhibition (active/not active)” value in series [1] was “Active”. The inhibition entry in series [2] was “Active”. The Activity entry with PBMC is “Non-Toxic”.

Consider `Cc1nnc(SCC2=C(C(=O)O)N3C(=O)[C@@H](NC(=O)Cn4cnnn4)[C@H]3SC2)s1` [CEFAZOLIN], for which the “TNF-alpha synthesis inhibition (active/not active)” value in series [1] was “Active”. For the same molecule, in series [2], the inhibition result is “Active”. Moreover, in the series on PBMC, the Activity entry is reported as “Non-Toxic”.

For `O=C(O)CCC(=O)NCc1ccc(C(=O)O)cc1`, in series [1], the “TNF-alpha synthesis inhibition (active/not active)” value was “inactive”. In addition, the inhibition result in series [2] is “inactive”. Also, the Activity result in the series on PBMC is reported as “Non-Toxic”.

Take `NCCC(=O)NCCc1c[nH]cn1` [CARCININE]: in series [1], the “TNF-alpha synthesis inhibition (active/not active)” value is “Active”. Also, the inhibition entry in series [2] was “Active”. Besides, in the series with PBMC, the Activity entry is listed as “Non-Toxic”.

On to `O=C(O)c1ccc(CNC(=O)C2CC=CCC2C(=O)O)cc1` (configuration not stated), for which the “TNF-alpha synthesis inhibition (active/not active)” value in series [1] is “inactive”. Besides, the inhibition entry in series [2] was “inactive”. Further, the Activity result with PBMC is “Non-Toxic”.
